The numbers were not newly measured in patent publication US20240358731A1, “SUMO PATHWAY AS AN OXYGEN SENSOR RELEVANT TO THE PATHOPHYSIOLOGY OF PULMONARY ARTERY HYPERTENSION AND CARDIAC ARRHYTHMIA” (Northeastern University, priority 2023, published 2024), which cites them from elsewhere.

Non-standard residues stand in square brackets, D forms with d. Residues, ends and D or L forms follow the SMILES beside them. ξ: configuration not given here. *: point of attachment. X2 = O=C(CN*)COC(=O)c1c2ccccc2cc2ccccc12; X1 = O=C(Cc1ccc(O)c([N+](=O)[O-])c1)*; Thr(3ξ) = CC(O)[C@H](N)C(=O)O

One data set has as its target T1, SUMO activating enzyme (SAE) (Homo sapiens, UniProt Q9UBE0+Q9UBT2).
T1 sequence (Q9UBE0 1-346): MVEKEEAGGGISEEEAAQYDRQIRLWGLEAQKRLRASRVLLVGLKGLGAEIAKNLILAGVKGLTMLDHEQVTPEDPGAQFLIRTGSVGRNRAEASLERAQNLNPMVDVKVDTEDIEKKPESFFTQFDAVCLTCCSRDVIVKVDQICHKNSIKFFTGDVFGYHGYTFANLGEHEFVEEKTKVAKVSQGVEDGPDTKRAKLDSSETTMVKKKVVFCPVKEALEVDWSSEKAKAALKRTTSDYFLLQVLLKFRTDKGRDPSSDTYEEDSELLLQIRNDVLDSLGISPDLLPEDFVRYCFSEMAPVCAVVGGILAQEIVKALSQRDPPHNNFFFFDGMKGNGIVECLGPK
T1 sequence (Q9UBT2 1-640): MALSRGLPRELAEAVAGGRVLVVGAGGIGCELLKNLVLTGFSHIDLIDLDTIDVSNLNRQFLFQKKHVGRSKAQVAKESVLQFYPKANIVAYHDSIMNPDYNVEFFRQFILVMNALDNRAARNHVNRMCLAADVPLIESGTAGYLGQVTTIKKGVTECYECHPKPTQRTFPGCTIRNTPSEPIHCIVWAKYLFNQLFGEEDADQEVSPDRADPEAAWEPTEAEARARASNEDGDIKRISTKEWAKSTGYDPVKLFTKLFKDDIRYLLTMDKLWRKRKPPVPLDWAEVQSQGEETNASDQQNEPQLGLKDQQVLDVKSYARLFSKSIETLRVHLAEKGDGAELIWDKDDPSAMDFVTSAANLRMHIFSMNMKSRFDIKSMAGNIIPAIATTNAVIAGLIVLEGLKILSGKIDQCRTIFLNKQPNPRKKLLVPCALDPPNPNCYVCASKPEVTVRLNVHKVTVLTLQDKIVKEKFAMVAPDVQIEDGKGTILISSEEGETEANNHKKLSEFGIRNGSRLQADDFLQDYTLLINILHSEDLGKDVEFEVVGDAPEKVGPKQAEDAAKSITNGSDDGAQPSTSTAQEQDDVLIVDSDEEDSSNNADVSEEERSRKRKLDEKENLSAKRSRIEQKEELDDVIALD
The settings on record: cited from earlier work.
Take `COc1ccc(-c2nnc(Nc3nc4c(OC)cccc4s3)o2)cc1` [Compound N106]: the SUMO-E1 activation entry was “capable of increasing SUMOylation through the activation of SUMO-E1”. `CCCCn1c(NS(=O)(=O)c2ccccc2)c(S(=O)(=O)c2ccc(C)cc2)c2nc3ccccc3nc21` [Compound 15]: the “SAE / SUMO E1 inhibition” value is recorded as “most potent”. For the molecule `NS(=O)(=O)OC[C@H]1C[C@@H](Nc2ncncc2C(=O)c2ccn(Cc3cccc(Br)c3)n2)C[C@@H]1O` [ML-792], the “SAE / SUMO E1 inhibition” value was “selective SAE inhibitor”.

Consider `COc1ccc(NC(=O)Nc2ccc(Oc3ncnc4cc(Cl)ccc34)nc2)cc1OC1CCCC1` [Compound 10], for which the “formation of the E1-SUMO complex” value was “prevents formation of the E1-SUMO complex”.

As to `O=C(Oc1cc(C(=O)O[C@H]2O[C@@H](OC(=O)c3cc(O)c(O)c(OC(=O)c4cc(O)c(O)c(O)c4)c3)[C@H](OC(=O)c3cc(O)c(O)c(OC(=O)c4cc(O)c(O)c(O)c4)c3)[C@@H](OC(=O)c3cc(O)c(O)c(OC(=O)c4cc(O)c(O)c(O)c4)c3)[C@@H]2OC(=O)c2cc(O)c(O)c(OC(=O)c3cc(O)c(O)c(O)c3)c2)cc(O)c1O)c1cc(O)c(O)c(O)c1` [Davidiin], the “formation of the E1-SUMO complex” value is on record as “blocks the formation of the E1-SUMO complex”.

For `C=CC[C@@H](Nc1ccccc1)C12C=CC(O1)C(C(=O)OC)=C2C(=O)OC` (stereo partly shown) [CID9549553], the “SAE / SUMO E1 inhibition” value is listed as “covalently targets an allosteric binding pocket of SUMO E1”.

The subject of another data set is SUMOylation. The settings on record: cited from earlier work.
Consider `CCc1cc(=O)[nH]c(-n2nc(-c3ccccc3)cc2NC(=O)Nc2ccc(C(C)(C)C)cc2)n1` [Pyrazole urea], for which the SUMOylation inhibition entry is “potent molecules capable of inhibiting SUMOylation in vitro”. Turning to `COC(=O)C1=C(C(=O)OC)C2([C@@H](Cc3ccc(C)cc3)Nc3ccccc3)C=CC1O2` (stereo partly shown) [COH000], the SUMOylation inhibition result is recorded as “more potent SUMOylation inhibitor”.

Regarding `COc1ccc(NC(=O)Nc2ccc(Oc3ncnc4cc(Cl)ccc34)nc2)cc1OC1CCCC1` [Compound 10], the SUMOylation inhibition result is reported as “potent in vitro SUMOylation inhibitor”. On to `CC1(C)CCC2=C(O1)c1ccccc1C(=O)C2=O` [β-lapachone], for which the SUMOylation inhibition entry is reported as “potent SUMOylation inhibitors”. On to `CC1CC2=C(O1)c1cccc(O)c1C(=O)C2=O` (stereo not shown) [nocardione A], for which the SUMOylation inhibition result is “potent SUMOylation inhibitors”. For the molecule `COc1cc(NC(=O)Nc2nc(-c3nc4ccccc4s3)cs2)cc(OC)c1OC` [thiazole urea], the SUMOylation inhibition entry is “potent molecules capable of inhibiting SUMOylation in vitro”. With `Cc1cc2c(o1)-c1ccccc1C(=O)C2=O` [33-DINOR-dehydrodunnione], the SUMOylation inhibition entry is listed as “potent SUMOylation inhibitors”. `CC1CC2=C(O1)c1ccccc1C(=O)C2=O` (stereo not shown) [33-DINOR-dunnione]: the SUMOylation inhibition result is “potent SUMOylation inhibitors”. In the case of `O=C(Oc1cc(C(=O)O[C@H]2O[C@@H](OC(=O)c3cc(O)c(O)c(OC(=O)c4cc(O)c(O)c(O)c4)c3)[C@H](OC(=O)c3cc(O)c(O)c(OC(=O)c4cc(O)c(O)c(O)c4)c3)[C@@H](OC(=O)c3cc(O)c(O)c(OC(=O)c4cc(O)c(O)c(O)c4)c3)[C@@H]2OC(=O)c2cc(O)c(O)c(OC(=O)c3cc(O)c(O)c(O)c3)c2)cc(O)c1O)c1cc(O)c(O)c(O)c1` [Davidiin], the SUMOylation inhibition result was “one of the most potent natural product SUMOylation inhibitors identified”.

The next data set deals with SENP. Conditions: cited from earlier work.
`CC(O)[C@H](NC(=O)[C@H](CCC(N)=O)NC(=O)[C@H](CCC(N)=O)NC(=O)Cc1ccc(O)c([N+](=O)[O-])c1)C(=O)NCC(=O)NCC(=O)COC(=O)c1c2ccccc2cc2ccccc12` (stereo partly shown) [VAE-500] (X1-QQ[Thr(3ξ)]G-X2): the SENP inhibition entry was “more potent and selective SENP inhibitors”. `COc1ccc(-c2cccc(C(=O)NCc3cccc(NC(=O)CCc4ccccc4)c3)c2)cc1` [Compound 51]: the SENP inhibition result is “potent and selective SENP inhibition”. As to `CS(=O)(=O)n1cc(COc2ccc3[nH]ccc3c2)c2cc(C(=O)OCc3cc(C#N)[nH]c(=O)c3)ccc21` [Compound 53], the SENP inhibition entry is “potent and selective SENP inhibition”. In the case of `O=C1C(O)=C(c2ccc(O)cc2)C(=O)C(O)=C1c1ccc(O)cc1` [NSC76919], the SENP inhibition result is on record as “exhibited inhibitory activity”.

For `CNC(=O)c1cc(CNC(=O)c2ccc3c(c2)c(COc2ccc4[nH]ccc4c2)cn3S(C)(=O)=O)cc(=O)[nH]1` [Compound 54], the SENP inhibition entry was “potent and selective SENP inhibition”. Regarding `CCOc1ccc(-c2nonc2NC(=O)COc2ccc(Cl)c(C)c2)cc1C` [Compound 46], the SENP inhibition entry is “potent and selective SENP inhibition”. With `Cc1cc(-c2ccc(/N=N/c3c(N)c(S(=O)(=O)O)cc4cc(S(=O)(=O)O)ccc34)c(C)c2)ccc1/N=N/c1c(N)ccc2ccc(S(=O)(=O)O)cc12` [SPI-02], the “inhibition of SUMO2 maturation” value is “more active at inhibiting SUMO2 maturation”. `O=CCN1C(=O)C(NC(=O)c2cccc(NC(=O)OCc3ccccc3)c2)N=C(c2ccccc2)c2ccccc21` (stereo not shown) [Compound 39]: the SENP inhibition result was “potent and selective SENP inhibition”. Turning to `Cc1cc(OCC(=O)Nc2nonc2NC(=O)COc2ccc(Cl)c(C)c2)ccc1Cl` [Compound 47], the SENP inhibition result is “potent and selective SENP inhibition”.

In the case of `CNC(=O)c1cc(COC(=O)c2ccc3c(c2)c(COc2ccc4[nH]ccc4c2)cn3S(C)(=O)=O)cc(=O)[nH]1` [Compound 52], the SENP inhibition entry is “potent and selective SENP inhibition”.

As to `CC(C)C[C@H](NC(=O)Cc1ccc(O)c([N+](=O)[O-])c1)C(=O)N[C@@H](CCCNC(=N)N)C(=O)NCC(=O)NCC(=O)COC(=O)c1c2ccccc2cc2ccccc12` [VAE-561], the SENP inhibition entry was “more potent and selective SENP inhibitors”. Turning to `O=C(/C=C/C1C(OC(=O)c2ccc(-c3ccccc3)cc2)CC2OC(=O)CC21)Oc1cccc(Cl)c1` (stereo not shown) [SI2], the SENP inhibition entry is “potent and selective SENP inhibition”. Turning to `CC(O)[C@H](NC(=O)[C@H](CCC(N)=O)NC(=O)Cc1ccc(O)c([N+](=O)[O-])c1)C(=O)NCC(=O)NCC(=O)COC(=O)c1c2ccccc2cc2ccccc12` (stereo partly shown) [VAE-499], the SENP inhibition entry is “more potent and selective SENP inhibitors”. Consider `O=C(Nc1cccc(NC(=O)c2ccc(-c3cc(Cl)ccc3Cl)o2)c1)c1ccccc1` [Compound 50], for which the SENP inhibition result is “potent and selective SENP inhibition”. In the case of `O=C(COC(=O)c1ccc(NC(=O)c2cccc(OCc3ccccc3)c2)cc1)c1ccc(Cl)cc1` [Compound 43], the SENP inhibition entry was “modest improvement in activity”. As to `O=C(NCc1cccc(CNC(=O)c2sc3cc(F)ccc3c2Cl)c1)c1sc2cc(F)ccc2c1Cl` [Compound 49], the SENP inhibition entry was “potent and selective SENP inhibition”.
